Patent US20240423980A1, “METHODS OF PREVENTING A VENOUS THROMBOEMBOLIC EVENT” (Board of Supervisors of Louisiana State University and …, priority 2023, published 2024)
One block for each compound: values may come before it.

Tests used:
Src = Src (Mus musculus, UniProt P05480); conditions: in vivo dose of 1.5 mg/kg; cited from earlier work
[1] = system: Src family of protein tyrosine kinases; conditions: cited from earlier work
mice with lung cancer = experiment: IVC stenosis DVT in mice with lung cancer (LLC1 cells); assay type: in vivo, mouse; conditions: thrombus harvested 48-hour post-stenosis, FIG. 23
Description: Lewis lung carcinoma (LLC1) cell line will be obtained from American Type Culture Collection (ATCC). The cell line was originally derived from a Lewis lung carcinoma of a C57BL mouse strain. The cells will be grown in Dulbecco's Modified Eagle Medium (DMEM) supplemented with 10% FCS, 2 mM L-glutamine, 100 U/ml penicillin, 100 μg/ml streptomycin, and 0.1% fungizone. The cells will be maintained at 37° C. in a humidified atmosphere with 5% CO2. The LLC1 cells (100 μL) will be injected once intravenously.
Macitentan at the dose of 2, 5 and 10 mg/kg will be administered orally once a day from the day of cancer induction until the end of the study.
Deep vein thrombosis (DVT) will be induced in mice after 14 days of tumor induction. Briefly, anesthetized mice will undergo laparotomy, the intestine will be exteriorized, and the intra renal IVC will be exposed. The IVC will then be dissected away from the aorta. For stenosis, IVC will be exposed, a space holder (30-gauge, 3-mm long needle) will be positioned on the outside of the vessel, and a permanent narrowing ligature will be placed exactly below the left renal vein. Subsequently, the needle will be removed to restrict blood flow to 80-90%. […]
Thrombus size and thrombosis incidence on day 1 and day 2 following DVT surgery will be evaluated by ultrasonography. […]

ITGA9-VCAM1 binding = target: T1, ITGA9-VCAM1 binding (Homo sapiens, UniProt Q13797); experiment: ITGA9 binding assay (ITGA9-VCAM1 binding, cell-free)
T1 construct: purchased R&D Systems
Description: Turning next to FIG. 2, another aspect of the invention is shown as a ITGA9 binding assay. Briefly, purified human VCAM1 (R&D Systems) diluted to 5 μg/ml in TBS+ buffer (25 mM Tris pH 7.4, 137 mM NaCl, 2.7 mM KCl, 1 mM CaCl2, 1 Mm MgCl2, 1 mM MnC12) was added to wells of a 96-well transparent microtiter plate and incubated overnight at 4° C. Wells were washed 3 times with buffer and blocking buffer (TBS+ with 1% bovine serum albumin) was added followed by incubation for 1 hour at 37° C., and then washing. Recombinant human integrin ITGA9 (R&D Systems) was diluted to 1 μg/ml in TBS+/0.1% bovine serum albumin. Macitentan was diluted into the integrin solution and added to the washed ligand-coated plate according to a standard template with each sample repeated in triplicate. After incubation for 2 hours at room temperature, the plate was washed 3 times with 150 μl TBS+ buffer. To each well, biotinylated anti-β1 (catalog BAF1778, R&D Systems) at 1 μg/ml in TBS+/0.1% BSA was added, and the plate covered and incubated for 1 hour at RT. After washing the plate 3 times with TBS+ buffer, streptavidin conjugated horseradish peroxidase (R&D Systems) diluted in TBS+ blocking buffer was added to the wells and the plate incubated for 20 minutes at room temperature. […] After incubation for 20 minutes at RT, plates were read by colorimetric detection at 450 nm wavelength. […]

wild-type mice = experiment: In vivo venous thrombosis using IVC stenosis (DVT surgery); parameters: species or system mouse; conditions: 10 mg/kg; measured at 24-hr; vs vehicle; FIG. 3
Description: Next, we performed in vivo venous thrombosis using IVC stenosis (DVT surgery) in 30 wild-type mice and randomized them into control (vehicle, n=15) and treatment (Macitentan, 10 mg/kg, n=15) groups. The thrombus weight and incidence were measured at 24-hr.

[2] = system: patients with mild-to-moderate COPD; conditions: cited from earlier work

T1 sequence (Q13797 30-981 limits assumed): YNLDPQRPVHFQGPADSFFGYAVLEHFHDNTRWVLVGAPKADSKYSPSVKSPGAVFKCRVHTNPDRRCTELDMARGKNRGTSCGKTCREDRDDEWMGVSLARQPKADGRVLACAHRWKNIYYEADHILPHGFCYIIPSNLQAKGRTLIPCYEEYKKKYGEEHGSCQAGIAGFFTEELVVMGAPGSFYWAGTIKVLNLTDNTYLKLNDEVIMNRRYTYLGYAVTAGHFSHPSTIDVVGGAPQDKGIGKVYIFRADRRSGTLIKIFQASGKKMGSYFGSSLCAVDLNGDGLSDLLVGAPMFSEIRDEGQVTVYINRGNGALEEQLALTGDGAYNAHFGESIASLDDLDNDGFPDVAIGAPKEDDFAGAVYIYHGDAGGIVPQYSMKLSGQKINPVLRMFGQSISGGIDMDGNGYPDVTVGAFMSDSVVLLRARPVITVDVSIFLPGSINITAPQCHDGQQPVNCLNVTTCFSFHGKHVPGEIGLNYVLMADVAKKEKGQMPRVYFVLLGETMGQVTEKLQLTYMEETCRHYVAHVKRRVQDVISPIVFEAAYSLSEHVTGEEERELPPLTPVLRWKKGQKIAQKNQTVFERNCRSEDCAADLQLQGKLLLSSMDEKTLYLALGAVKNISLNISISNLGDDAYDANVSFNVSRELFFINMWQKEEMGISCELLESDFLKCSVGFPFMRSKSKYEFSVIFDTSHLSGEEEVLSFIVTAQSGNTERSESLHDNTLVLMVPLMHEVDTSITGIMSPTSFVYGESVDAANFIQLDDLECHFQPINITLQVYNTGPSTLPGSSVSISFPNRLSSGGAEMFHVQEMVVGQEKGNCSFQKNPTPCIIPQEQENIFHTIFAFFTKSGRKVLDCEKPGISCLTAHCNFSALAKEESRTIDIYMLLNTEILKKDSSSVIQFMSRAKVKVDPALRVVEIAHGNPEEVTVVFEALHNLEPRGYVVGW
T1 sequence (P05556 21-728 partner limits assumed): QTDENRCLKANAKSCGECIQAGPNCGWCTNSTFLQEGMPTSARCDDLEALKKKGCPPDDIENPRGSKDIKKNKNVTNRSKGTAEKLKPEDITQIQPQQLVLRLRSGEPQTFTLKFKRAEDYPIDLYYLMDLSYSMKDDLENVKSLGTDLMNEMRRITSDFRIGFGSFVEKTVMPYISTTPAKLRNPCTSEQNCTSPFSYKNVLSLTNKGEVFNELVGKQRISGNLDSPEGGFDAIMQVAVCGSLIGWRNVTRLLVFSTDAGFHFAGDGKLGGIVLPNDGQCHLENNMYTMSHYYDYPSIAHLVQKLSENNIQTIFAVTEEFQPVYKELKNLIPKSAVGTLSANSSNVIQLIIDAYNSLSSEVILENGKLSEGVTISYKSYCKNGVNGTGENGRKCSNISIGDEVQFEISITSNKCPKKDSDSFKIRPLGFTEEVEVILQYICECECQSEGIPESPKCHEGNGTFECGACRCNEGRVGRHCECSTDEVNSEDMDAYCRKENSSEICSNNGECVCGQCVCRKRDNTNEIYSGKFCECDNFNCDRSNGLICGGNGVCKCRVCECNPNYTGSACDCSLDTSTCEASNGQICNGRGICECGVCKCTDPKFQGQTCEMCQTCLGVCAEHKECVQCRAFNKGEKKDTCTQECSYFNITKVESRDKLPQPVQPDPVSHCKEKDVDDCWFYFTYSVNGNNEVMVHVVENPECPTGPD
Src, sequence (P05480 whole entry): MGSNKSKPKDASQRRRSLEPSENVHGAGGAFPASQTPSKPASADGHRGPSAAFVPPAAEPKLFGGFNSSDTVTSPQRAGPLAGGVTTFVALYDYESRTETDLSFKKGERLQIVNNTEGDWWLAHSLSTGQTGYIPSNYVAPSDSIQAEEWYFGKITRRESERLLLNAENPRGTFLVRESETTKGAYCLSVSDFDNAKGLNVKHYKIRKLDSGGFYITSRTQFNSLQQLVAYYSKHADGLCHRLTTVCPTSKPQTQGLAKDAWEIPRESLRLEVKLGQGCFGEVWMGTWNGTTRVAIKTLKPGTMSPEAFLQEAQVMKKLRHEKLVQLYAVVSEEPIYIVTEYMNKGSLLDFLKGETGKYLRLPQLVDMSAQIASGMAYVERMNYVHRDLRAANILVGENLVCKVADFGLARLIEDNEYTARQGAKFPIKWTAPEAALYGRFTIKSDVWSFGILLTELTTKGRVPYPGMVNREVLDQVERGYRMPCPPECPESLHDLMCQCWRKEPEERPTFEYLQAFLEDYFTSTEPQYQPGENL

Structure (SMILES): Cc1ccc(-c2nn(C(C)(C)C)c3ncnc(N)c23)cc1 [PP1]
inhibition of Src in vivo (Src): significant inhibition | IC50 [1]: 170 nM

binds to integrin α9 and inhibits its interactions with VCAM-1 (ITGA9-VCAM1 binding): inhibits its interactions with VCAM-1 | inhibition of ITGA9-VCAM1 binding (ITGA9-VCAM1 binding; Macitentan at 1 μM, FIG. 2): significantly inhibited
Structure (SMILES): CCCNS(=O)(=O)Nc1ncnc(OCCOc2ncc(Br)cn2)c1-c1ccc(Br)cc1 [Macitentan]
DVT severity (IVC thrombus weight) (mice with lung cancer): significantly reduced | thrombosis incidence (wild-type mice): significantly reduced | thrombus weight (wild-type mice): significantly reduced

Structure (SMILES): Cc1c(F)cccc1NC(=O)Nc1ccc(Cl)c(S(=O)(=O)[C@H]2CCCNC2)c1O [Danirixin]
number of pneumonias ([2]; danirixin 50 mg): increased number of pneumonias | incidence of exacerbation ([2]; danirixin-treated groups, COPD patients): increased incidence of exacerbation
